According to patent publication US6869940B2, “Malignant tumor metastasis inhibitors” (Chugai Seiyaku Kabushiki Kaisha, priority 1995, dated 2005):

Test system: Hara cells derived from human lung cancer
Test: Bone metastasis model: Hara cells transplanted into the heart of nude mice, preventive effect of OCT
Format: in vivo
Source text: Preventive effects of OCT on bone metastases were studied using a bone metastasis model prepared with Hara cells derived from human lung cancer.
A test of preventive effects of OCT on bone metastases of Hara cells was started on the 20th day after 5×10^5 Hara cells were transplanted into the heart of nude mice, at which time the body weight of the animals began to slightly decrease but neither rise in Ca nor clear bone metastasis image on soft X-rays was observed. On that day, the animals were grouped by body weight, and a vehicle (n=9) or 1 μg/kg of OCT (n=9) was orally administered to each animal 4 to 5 times per week for six weeks (29 times in total). At different instants during the administration period, the body weight and Ca level in blood were measured and soft X-ray photographs were taken.

[1] = after 15 doses on the 22nd day after starting the test, 1 μg/kg OCT orally, n=9
[2] = after 20 doses on the 29th day after starting the test, 1 μg/kg OCT orally, n=9
[3] = first day of the test, 1 μg/kg OCT orally, n=9

C=C1/C(=C\C=C2/CCC[C@@]3(C)C2CC[C@@H]3[C@H](C)OCCC(C)(C)O)C[C@@H](O)C[C@@H]1O (stereo partly drawn) [OCT, 22-oxa-1α, 25-dihydroxyvitamin D3]
effect on rise in Ca level in blood (1 μg/kg OCT orally vs vehicle group): tendency to suppress the rise in Ca level in blood
death (1 μg/kg OCT orally, n=9, in the vehicle group four animals died by the 42nd day): no death was observed
effect on body weight decrease (29th day, 1 μg/kg OCT orally vs vehicle group, p<0.05): significantly suppressed body weight decrease
Ca level in blood [1]: 1.37 ± 0.04 mM
body weight [1]: 24.51 ± 1.27 g
Ca level in blood [2]: 1.34 ± 0.16 mM
body weight [2]: 25.00 ± 1.20 g
bone metastasis image on soft X-ray photographs (during the administration period (six weeks), 1 μg/kg OCT orally, n=9, vehicle group: four animals in total): no bone metastasis image was observed
Ca level in blood [3]: 1.32 ± 0.04 mM
body weight [3]: 23.61 ± 1.57 g
